# Columns and labels:
# N2a cells = system: N2a cells
# Description: (§1) Cytotoxicity effects for each drug were measured by the colorimetric MTT assay. The MTT assay includes a yellow tetrazole that is reduced to purple formazan in living cells. In this implementation, solubilization solution (e.g., dimethyl sulfoxide, an acidified ethanol solution, or a solution of the detergent sodium dodecyl sulfate in diluted hydrochloric acid) was added to dissolve the insoluble purple formazan product into a colored solution. The absorbance of this colored solution was quantified by measuring at a certain wavelength (e.g, between 500 and 600 nm) by a spectrophotometer where the degree of light absorption depends on the solvent. The MTT assay can provide a useful measure of cell viability and proliferation. To quantify cytotoxicity, 10 μl of 10 mg/ml of MTT reagent was added to a well containing cells, and the cells were incubated at 37° C. for 4 hours. The supernatant was aspirated and the purple-colored formazan product was dissolved in 100 μl of DMSO. Absorbance was measured at 590 nm. The average of triplicate wells was taken for each concentration of the drug, and cell viability was calculated by substituting the corresponding mean absorbance values using the following equation:
# (§2) A T-test (*=p<0.01; 0 μM=untreated cells) was used to compare toxicity between the two drugs at different concentrations.
# [1] = system: cisplatin-treated HEI-OC1 cells; experiment: Protective potential of quinoxaline pre-treatment on cisplatin-treated HEI-OC1 cells; assay type: cell-based
# Description: HEI-OC1 cells were plated at a density of 20,000 cells per well overnight, followed by a pre-treatment with varying concentrations of quinoxaline (i.e., 200 nM, 1 μM, 10 μM, and 50 μM) for one hour.
# HEI-OC1 cells [2] = assay type: cell-based; conditions: 24 hours
# Description: As previously done for HT 1080 and N2a cells, the potential cytotoxicity of quinoxaline was measured in HEI-OC1 cells. HEI-OC1 cells were treated with a crescent dosage of quinoxaline (i.e., 200 nM, 500 nM, 1 μM, 10 μM, 50 μM) for 24 hours and submitted to MIT analyses.
# HT 1080 cells = system: HT 1080 cells
# Description: as §1, §2
# HEI-OC1 cells [3] = experiment: CYQUANT cell proliferation assay (DNA content) in HEI-OC1 cells; assay type: cell-based; conditions: 200 nM, 500 nM, 1 μM, 5 μM for 24 hours, t-test p<0.001, most noticeable at 200 and 500 nM
# Description: In an implementation, HEI-OC1 cells were treated with different concentrations (e.g., 200 nM, 500 nM, 1 μM, and 5 μM) of quinoxaline for 24-hours. Untreated cells were used as control groups. To quantify potential changes in cell proliferation following the treatment, DNA isolated from treated and untreated cells was submitted to CYQUANT analysis (Invitrogen, Grand Island, N.Y.), following the manufacturer's instructions for cell proliferation assay. The CYQUANT assay is based on the principle that cell number is proportional to the measurement of cellular DNA content. However, the use of the CYQUANT assay is offered by way of example only and is not meant to be restrictive of the present disclosure. In other embodiments, other types of cell proliferation assays can be used to quantify potential changes in cell proliferation. FIG. 3B illustrates the DNA content of untreated cells and quinoxaline-treated cells. […] Quinoxaline's effect in cell proliferation was most noticeable when cells were treated with lower concentrations (i.e., 200 nm and 500 nM) of the drug.
# [4] = system: cisplatin-treated N2a cells; conditions: 1 μM quinoxaline pre-treatment, then 100 μM cisplatin
# Description: as §1, with “equation: […]” for “equation:”
# (§3) Cells were plated at a density of 20,000 cells per well overnight, followed by a pretreatment with varying concentrations of quinoxaline for one hour. […]
# [5] = system: cochlear hair cells (organ of Corti); experiment: In vivo chemoprotective and proliferative effects on cochlear hair cells of cisplatin-treated mice; conditions: C57BL/6 mice
# Description: The inner ear neurosensory epithelia, the organ of Corti (OC), were analyzed. FIGS. 4A through 4D illustrate the outer hair cells (OHCs) and inner hair cells (IHCs) in the middle turn of the cochlea of adult C57BL/6 mice submitted to different treatments. The control group was the untreated cochlea, illustrated in FIG. 4A.
# [6] = system: cisplatin-treated HT 1080 cells; experiment: Protective potential of quinoxaline pre-treatment on cisplatin-treated HT 1080 cells; assay type: cell-based, human; conditions: quinoxaline pre-treatment 1 hour, then 100 μM cisplatin 24 hours
# Description: as §1, with “equation: […]” for “equation:”
# as §3
SMILES,cell response compared with HT 1080 cells (N2a cells),survival rate ([1]; 200 nM quinoxaline 1 hour pre-treatment + 200 μM cisplatin 24 hours) [%],survival rate ([1]; 1 μM quinoxaline 1 hour pre-treatment + 200 μM cisplatin 24 hours) [%],cell survival ([1]; pre-treated with higher than 10 μM quinoxaline + 200 μM cisplatin),"cell death (HEI-OC1 cells [2]; HEI-OC1, dosages higher than 10 μM)","cell proliferation (HEI-OC1 cells [2]; HEI-OC1, lower doses of quinoxaline)",sensitivity of HEI-OC1 cells (HEI-OC1 cells [2]; quinoxaline concentrations higher than 5 μM),cytotoxicity (HT 1080 cells),"effect on cell proliferation (total number of cells) (HT 1080 cells; HT 1080 cells, 0.5 μM)",DNA content (cell proliferation) versus untreated cells (HEI-OC1 cells [3]),cell proliferation [4],"cell proliferation (numbers of supernumerary cells) ([5]; low doses (e.g., 15 mg))",supernumerary myosin VIIa-positive cells at the IHC region ([5]; quinoxaline pre-treated ears),"myosin VIIa-positive hair cells in middle turn of cochlea ([5]; quinoxaline pre-treatment + cisplatin 20 mg/Kg, versus cisplatin only)",overall cytotoxicity versus 100 μM cisplatin only [6]
"N.N.[Cl][Pt][Cl] [cisplatin, reference compound]",No statistically significant differences,–,–,–,–,–,–,–,–,–,–,–,–,–,–
c1ccc2nccnc2c1 [quinoxaline],No statistically significant differences,25,40,No statistically significant differences in cell survival,"smaller, but quantifiable cell death",increase in cell proliferation,particularly sensitive,consistently lower than that of cisplatin,"modest, but quantifiable, positive effect on cell proliferation",statistically significant increase in DNA content,promoted their proliferation,increase in the numbers of supernumerary cells,supernumerary myosin VIla-positive cells were observed,myosin VIla-positive hair cells were still observed,significantly reduced overall cytotoxicity
